Reference: PubChem BioAssay (NCI)
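96-well plates; 48 h exposure; 5 concentrations. Endpoints by linear interpolation between flanking doses. Not reached: highest tested concentration assigned. Abbreviation: GI50, concentration required for 50% inhibition of growth. At the TGI there is no net growth.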

Key:
Assay in all cases: NCI tumour cell line growth inhibition, 48 h
[1] = test system: ACHN renal
[2] = test system: SW-620 colon
[3] = test system: IGROV1 ovarian
[4] = test system: SK-MEL-2 melanoma
[5] = test system: TK-10 renal
[6] = test system: UACC-257 melanoma
[7] = test system: MCF7 breast
[8] = test system: PC-3 prostate
[9] = test system: NCI-H23 lung
[10] = test system: RXF 393 renal

| Structure (SMILES) | TGI [1] [µM] | TGI [2] [µM] | TGI [3] [µM] | TGI [4] [µM] | TGI [5] [µM] | TGI [6] [µM] | TGI [7] [µM] | TGI [8] [µM] | TGI [9] [µM] | TGI [10] [µM] | GI50 [10] [µM] |
| --- | --- | --- | --- | --- | --- | --- | --- | --- | --- | --- | --- |
| CC(C)(C)N/N=C(\C(=O)NC1=C(Cl)C(=O)c2ccccc2C1=O)C1C=CCS1(=O)=O (configuration not stated) | 55.3 | > 100 | 24.5 | 24.9 | > 100 | 26.5 | 29 | 62.2 | 24.2 |  |  |
| N/C1=C/C(=O)NC(=O)c2c(c3ccccc3oc2=O)C1 | > 100 | > 100 | > 100 | > 100 | > 100 | > 100 |  | > 100 | > 100 | > 100 |  |
| O=C1CSC(c2ccc(Cl)cc2Cl)N1c1ccc(Oc2ccc(Cl)cc2)c(Cl)c1 (configuration not stated) | > 100 | > 100 | > 100 | 72.7 | > 100 | > 100 | > 100 | > 100 | 69.6 |  |  |
| NC(=O)CC(N=Cc1nc(-c2ccccc2)oc1O)C(=O)O (configuration not stated) | > 100 | > 100 | > 100 | > 100 | > 100 | > 100 |  |  | > 100 | > 100 |  |
| CC(C)(NC(=O)OCc1ccccc1)C(=O)OC(=O)C(C)(C)NC(=O)OCc1ccccc1 | > 100 | > 100 | > 100 | > 100 |  |  | > 100 | > 100 | > 100 |  |  |
| NC(=S)N1N=C2c3ccccc3CC[C@H]2[C@@H]1c1ccc(Cl)cc1 | > 100 | > 100 | > 100 | 61.1 | > 100 | 95 |  |  | 97.7 | 84.3 |  |
| Cc1c2c(n(CC(c3ccccc3)c3ccccc3)c1C)NN=C(C#N)S2(=O)=O | > 100 | > 100 | > 100 | > 100 | > 100 | > 100 | > 100 | > 100 | > 100 |  |  |
| COc1cc(-c2c3c(cc4c2OCO4)[C@@H](Nc2ccc(-c4ccc(-c5ccc(N[C@@H]6c7cc8c(cc7C(c7cc(OC)c(O)c(OC)c7)[C@H]7C(=O)OC[C@H]67)OCO8)cc5)cc4)cc2)[C@H]2COC(=O)[C@@H]2C3)cc(OC)c1O (some centres not stated) | 11.3 | 10.8 | 2.68 |  | 8.59 | 80.4 | 12.1 | 8.37 | 20.7 |  |  |
| O=C(O)/C=C/c1c[nH]c(=O)[nH]c1=O |  | > 500 | > 500 | > 500 |  | > 500 | > 500 |  | > 500 | > 500 | > 500 |
| C#CCN(Cc1ccc2nc(-c3ccccc3)c(N)nc2c1)c1cc(OC)c(OC)c(OC)c1 | 80.7 | > 100 | > 100 | 64.8 | > 100 |  |  |  | > 100 | 96.2 |  |
| C[C@H](CCC1SC1(C)C)C1CCC2(C)C3=C(CC[C@]12C)[C@@]1(C)CC[C@H](O)C(C)(C)C1CC3 (some centres not stated) | > 100 | > 100 | > 100 | > 100 | > 100 | > 100 |  |  | > 100 | > 100 |  |
| C(=Nc1ccc(-c2nc3ccccc3s2)cc1)c1ccc[nH]1 | 60.7 | 53.8 | 40.6 | 32 | 64.2 | 31.2 |  | 31.5 | 37 | 31.3 |  |
| Cc1cc(S(=O)(=O)Nc2n[nH]c(N)n2)c(Cl)cc1Cl | > 10 | > 10 | > 10 | > 10 | > 10 | > 10 |  | > 10 | > 10 | > 10 |  |
| O=C1CSC(c2cccc(Cl)c2)N1c1ccc(-c2ccc(-n3c(-c4ccccc4)nc4ccccc4c3=O)cc2)cc1 (configuration not stated) | > 100 | > 100 | > 100 | > 100 | > 100 | > 100 | > 100 | > 100 | > 100 |  |  |
| COc1cc(C(C)O)c[n+](CCC2CNc3ccccc32)c1 (configuration not stated) | > 100 | > 100 | > 100 | > 100 |  | > 100 |  |  | > 100 |  |  |
| Clc1ccc(C[P+](c2ccccc2)(c2ccccc2)c2ccccc2)cc1Cl | 31.2 | 12.7 | 14.6 | 6.4 | 17.6 | 8.32 |  |  | 10.4 |  |  |
| Cc1ccc(C2(c3ccc(F)cc3)OC(=O)c3ccccc32)c(O)c1 (configuration not stated) | 28.2 | 30.6 | 34 | 30.2 | 29.6 | 31 | 37.5 |  | 44.9 |  |  |
| C[C@@H]1CC(=O)C[C@@H]2CC[C@H]3[C@@H]4CC[C@H](OC(=O)c5cccc6cc7ccccc7nc56)[C@H]4CC[C@@H]3[C@H]21 | 29.3 | 44.2 | 19.2 | 38 | 65.9 | 30.8 |  | 27.1 | 30.4 | 34.9 |  |
